By CC50 is commonly meant the concentration at which the toxic effect on the cells reaches its halfway point. A lower CC50 goes with greater toxicity to the cells. What is called melting point is the temperature of the solid-liquid transition. As a reminder, the IC50 is the concentration at which inhibition is half-maximal.

Drawing on PMC7762786, “The discovery of novel antitrypanosomal 4-phenyl-6-(pyridin-3-yl)pyrimidines” (European Journal of Medicinal Chemistry, 2021), this text covers CC50, melting point and IC50 for 23 compounds.

Data set [1] concerns L6 cells (rat skeletal myoblasts). In words: In vitro cytotoxicity with L6 cells, Alamar Blue assay. It counts as cell-based. How it is done:
(§1) In vitro cytotoxicity with L6 cells (a […] cell line derived from rat skeletal myoblasts) were performed in 96-well microtiter plates with each well containing 100 μl of RPMI 1640 medium supplemented with 1% L-glutamine (200 mM) and 10% fetal bovine serum and 4000 L6 cells. Serial drug dilutions from 100 to 0.002 μg/mL were prepared and after 70 h of incubation the plates were microscopically inspected to ensure the validity of control wells and sterile conditions. Then, 10 μl of Alamar Blue was added to each well and the plates incubated for an additional 2 h. Plates were read with a Spectramax Gemini XS microplate fluorometer (Molecular Devices Cooperation, Sunnyvale, CA, USA) using an excitation wave length of 536 nm and an emission wave length of 588 nm.
For orientation: Resazurin is reduced to fluorescent resorufin, in cell work by metabolically active cells.

The test system of data set [2] is Trypanosoma brucei rhodesiense STIB900 (bloodstream trypomastigotes). Briefly: In vitro antitrypanosomal activity, Alamar Blue assay. It counts as cell-based. The settings on record: 70 h, STIB900 bloodstream forms, 70 h incubation, read-out: IC50 T. b. rhodesiense. How it is done:
Assays were performed as described by Bernal et al.. In vitro antitrypanosomal activities of compounds were determined against Trypanosoma brucei rhodesiense STIB900 (bloodstream trypomastigotes) where the parasitic stock was isolated in 1982 from a human patient in Tanzania. […] Then, 10 μl of Alamar Blue (resazurin, 12.5 mg in 100 mL double-distilled water) was added to each well and incubation continued for a further 2–4 h. Plates were read with a Spectramax Gemini XS microplate fluorometer (Molecular Devices Cooperation, Sunnyvale, CA, USA) using an excitation wavelength of 536 nm and an emission wavelength of 588 nm.

Data set [3] in a line: In vitro cytotoxicity with L6 cells, Alamar Blue assay. It counts as cell-based, rat. Particulars: L6 rat skeletal myoblasts, 70 h incubation. How it is done: as §1
Setting [4] is: L6 cells (rat skeletal myoblasts).

Where only a bound is given, the exact number is not on record here.

“4-(2-Methoxyphenyl)-6-(pyridin-2-yl)pyrimidin-2-amine [Compound 23]” registered a CC50 in data set [1] of more than 100 µM.

“4-(2-Methoxyphenyl)-6-(pyridin-4-yl)pyrimidin-2-amine [Compound 25]”: in data set [1], the CC50 was more than 70 µM.

In data set [1], “4-(2-Methoxyphenyl)-6-(pyridin-4-yl)pyrimidine [Compound 24]” displayed a 50% cytotoxic concentration (CC50) of more than 100 µM.

Consider `c1ccc(-c2cc(-c3cccnc3)ncn2)cc1` [Compound 1, 4-Phenyl-6-(pyridin-3-yl)pyrimidine], for which the melting point lay in the range of 116 to 118 °C.

In the case of `c1cncc(-c2cc(-c3cccnc3)ncn2)c1` [Compound 2, 4,6-Bis(Pyridin-3-yl)pyrimidine], the melting point lay within 206 to 207 °C.

With `COc1ccccc1-c1cc(-c2cccnc2)ncn1` [Compound 3, 4-(2-Methoxyphenyl)-6-(pyridin-3-yl)pyrimidine], the melting point was in the range of 102 to 104 °C.

`COc1cccc(-c2cc(-c3cccnc3)ncn2)c1` [Compound 5, 4-(3-Methoxyphenyl)-6-(pyridin-3-yl)pyrimidine] yielded a melting point of 124 to 125 °C.

Regarding `Brc1cccc(-c2cc(-c3cccnc3)ncn2)c1` [Compound 6, 4-(3-Bromophenyl)-6-(pyridin-3-yl)pyrimidine], the melting point was 162 to 163 °C.

Turning to `Fc1cccc(-c2cc(-c3cccnc3)ncn2)c1` [Compound 7, 4-(3-Fluorophenyl)-6-(pyridin-3-yl)pyrimidine], the melting point lay within 193 to 195 °C.

The compound `COc1ccc(-c2cc(-c3cccnc3)ncn2)cc1` [Compound 8, 4-(4-Methoxyphenyl)-6-(pyridin-3-yl)pyrimidine] came in with a melting point of 165 to 167 °C.

Compound `COc1ccc(-c2cc(-c3cccnc3)ncn2)cc1OC` [Compound 9, 4-(3,4-Dimethoxyphenyl)-6-(pyridin-3-yl)pyrimidine] returned a melting point of 131 to 134 °C.

Compound `c1cncc(-c2cc(-c3ccc4c(c3)OCO4)ncn2)c1` [Compound 10, 4-(2H-1,3-benzodioxol-5-yl)-6-(pyridin-3-yl)pyrimidine] had a melting point of 173 to 175 °C. The IC50 in data set [2] came out at 6.7 µM. Besides, the CC50 at 70 h in data set [3] (setting [4]) is more than 100 µM.

Turning to `Nc1nc(-c2ccccc2)cc(-c2cccnc2)n1` [Compound 11, 4-Phenyl-6-(pyridin-3-yl)pyrimidin-2-amine], the melting point fell in the range of 172 to 175 °C.

Compound `Nc1nc(-c2cccnc2)cc(-c2cccnc2)n1` [Compound 12, 4,6-Bis(Pyridin-3-yl)pyrimidin-2-amine] displayed a melting point of 229 to 230 °C.

As for `Nc1nc(-c2cccnc2)cc(-c2ccccc2Br)n1` [Compound 14, 4-(2-Bromophenyl)-6-(pyridin-3-yl)pyrimidin-2-amine], the melting point lay in the range of 149 to 152 °C.

Regarding `COc1cccc(-c2cc(-c3cccnc3)nc(N)n2)c1` [Compound 15, 4-(3-Methoxyphenyl)-6-(pyridin-3-yl)pyrimidin-2-amine], the melting point fell in the range of 162 to 164 °C.

In turn, `Nc1nc(-c2cccnc2)cc(-c2cccc(Br)c2)n1` [Compound 16, 4-(3-Bromophenyl)-6-(pyridin-3-yl)pyrimidin-2-amine] yielded a melting point of 169 to 171 °C.

As to `Nc1nc(-c2cccnc2)cc(-c2cccc(F)c2)n1` [Compound 17, 4-(3-Fluorophenyl)-6-(pyridin-3-yl)pyrimidin-2-amine], the melting point was 196 to 198 °C.

On to `COc1ccc(-c2cc(-c3cccnc3)nc(N)n2)cc1` [Compound 18, 4-(4-Methoxyphenyl)-6-(pyridin-3-yl)pyrimidin-2-amine], for which the melting point fell in the range of 163 to 165 °C.

As for `Nc1nc(-c2ccc(Br)cc2)cc(-c2cccnc2)n1` [Compound 19, 4-(4-Bromophenyl)-6-(pyridin-3-yl)pyrimidin-2-amine], the melting point lay within 210 to 211 °C.

`COc1ccc(-c2cc(-c3cccnc3)nc(N)n2)cc1OC` [Compound 20, 4-(3,4-Dimethoxyphenyl)-6-(pyridin-3-yl)pyrimidin-2-amine] returned a melting point of 165 to 167 °C.

For the compound `Nc1nc(-c2cccnc2)cc(-c2ccc3c(c2)OCO3)n1` [Compound 21, 4-(2H-1,3-benzodioxol-5-yl)-6-(pyridin-3-yl)pyrimidin-2-amine], the melting point was 236 to 238 °C. The IC50 in data set [2] stood at 12.9 µM. In data set [3] (setting [4]), this compound displayed a half-maximal cytotoxic concentration (CC50) at 70 h of more than 100 µM.

In the case of `COc1cc([C@@H]2c3cc4c(cc3[C@H](O)[C@H]3COC(=O)[C@H]23)OCO4)cc(OC)c1OC` [Podophyllotoxin, reference compound], in data set [3], the CC50 at 70 h is 0.019 µM.
